Assay results as given in US9527851B2, “Pyrrole six-membered heteroaryl ring derivative, preparation method thereof, and medicinal uses thereof” (Jiangsu Hengrui Medicine Co., Ltd., priority 2011, dated 2016).

Experiments:
JAK2 kinase = JAK2 kinase (Homo sapiens (Human), UniProt O60674); assay: Assay for inhibiting JAK2 kinase (in vitro kinase assay, HRP anti-phosphotyrosine antibody/TMB absorbance); format: biochemical; settings: 20 μM ATP, 50 minutes at room temperature; read-out: IC50 (JAK2/Bio)
JAK2 kinase, sequence (O60674 whole entry): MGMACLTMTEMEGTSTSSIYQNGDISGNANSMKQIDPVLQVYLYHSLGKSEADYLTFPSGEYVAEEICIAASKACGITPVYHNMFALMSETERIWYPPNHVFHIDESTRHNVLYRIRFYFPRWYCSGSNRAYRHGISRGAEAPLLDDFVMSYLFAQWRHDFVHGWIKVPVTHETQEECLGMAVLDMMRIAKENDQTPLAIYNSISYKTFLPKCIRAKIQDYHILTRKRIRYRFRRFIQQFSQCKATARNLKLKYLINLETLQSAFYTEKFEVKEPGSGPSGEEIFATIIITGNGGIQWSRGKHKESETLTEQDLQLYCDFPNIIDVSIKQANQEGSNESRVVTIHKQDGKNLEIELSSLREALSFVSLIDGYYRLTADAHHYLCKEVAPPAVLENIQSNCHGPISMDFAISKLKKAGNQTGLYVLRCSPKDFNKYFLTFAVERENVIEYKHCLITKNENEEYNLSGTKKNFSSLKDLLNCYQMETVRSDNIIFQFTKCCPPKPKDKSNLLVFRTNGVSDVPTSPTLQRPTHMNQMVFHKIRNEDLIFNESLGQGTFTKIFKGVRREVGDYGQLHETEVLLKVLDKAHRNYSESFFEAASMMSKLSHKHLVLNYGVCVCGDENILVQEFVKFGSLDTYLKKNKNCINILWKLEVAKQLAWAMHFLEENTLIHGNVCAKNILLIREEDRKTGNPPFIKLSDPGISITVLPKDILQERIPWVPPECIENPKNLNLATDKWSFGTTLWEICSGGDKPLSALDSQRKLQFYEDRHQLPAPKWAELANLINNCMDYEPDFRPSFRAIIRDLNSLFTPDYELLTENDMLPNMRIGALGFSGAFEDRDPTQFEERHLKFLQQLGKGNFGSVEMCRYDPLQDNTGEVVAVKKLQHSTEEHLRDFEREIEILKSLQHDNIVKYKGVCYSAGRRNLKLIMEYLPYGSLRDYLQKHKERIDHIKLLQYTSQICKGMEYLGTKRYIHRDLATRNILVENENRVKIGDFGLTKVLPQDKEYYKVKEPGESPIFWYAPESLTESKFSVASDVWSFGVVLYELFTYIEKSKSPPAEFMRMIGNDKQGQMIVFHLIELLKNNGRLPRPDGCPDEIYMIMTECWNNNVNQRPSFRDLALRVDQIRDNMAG
Procedure: In vitro activity of compounds of the present invention for inhibiting JAK2 kinase was determined by the following method.

JAK1 kinase = JAK1 kinase (Homo sapiens (Human), UniProt P23458); assay: Assay for inhibiting JAK1 kinase (in vitro kinase assay, HRP anti-phosphotyrosine antibody/TMB absorbance); format: biochemical; settings: 20 μM ATP, 50 minutes at room temperature; read-out: IC50 (JAK1/Bio)
JAK1 kinase, sequence (P23458 whole entry): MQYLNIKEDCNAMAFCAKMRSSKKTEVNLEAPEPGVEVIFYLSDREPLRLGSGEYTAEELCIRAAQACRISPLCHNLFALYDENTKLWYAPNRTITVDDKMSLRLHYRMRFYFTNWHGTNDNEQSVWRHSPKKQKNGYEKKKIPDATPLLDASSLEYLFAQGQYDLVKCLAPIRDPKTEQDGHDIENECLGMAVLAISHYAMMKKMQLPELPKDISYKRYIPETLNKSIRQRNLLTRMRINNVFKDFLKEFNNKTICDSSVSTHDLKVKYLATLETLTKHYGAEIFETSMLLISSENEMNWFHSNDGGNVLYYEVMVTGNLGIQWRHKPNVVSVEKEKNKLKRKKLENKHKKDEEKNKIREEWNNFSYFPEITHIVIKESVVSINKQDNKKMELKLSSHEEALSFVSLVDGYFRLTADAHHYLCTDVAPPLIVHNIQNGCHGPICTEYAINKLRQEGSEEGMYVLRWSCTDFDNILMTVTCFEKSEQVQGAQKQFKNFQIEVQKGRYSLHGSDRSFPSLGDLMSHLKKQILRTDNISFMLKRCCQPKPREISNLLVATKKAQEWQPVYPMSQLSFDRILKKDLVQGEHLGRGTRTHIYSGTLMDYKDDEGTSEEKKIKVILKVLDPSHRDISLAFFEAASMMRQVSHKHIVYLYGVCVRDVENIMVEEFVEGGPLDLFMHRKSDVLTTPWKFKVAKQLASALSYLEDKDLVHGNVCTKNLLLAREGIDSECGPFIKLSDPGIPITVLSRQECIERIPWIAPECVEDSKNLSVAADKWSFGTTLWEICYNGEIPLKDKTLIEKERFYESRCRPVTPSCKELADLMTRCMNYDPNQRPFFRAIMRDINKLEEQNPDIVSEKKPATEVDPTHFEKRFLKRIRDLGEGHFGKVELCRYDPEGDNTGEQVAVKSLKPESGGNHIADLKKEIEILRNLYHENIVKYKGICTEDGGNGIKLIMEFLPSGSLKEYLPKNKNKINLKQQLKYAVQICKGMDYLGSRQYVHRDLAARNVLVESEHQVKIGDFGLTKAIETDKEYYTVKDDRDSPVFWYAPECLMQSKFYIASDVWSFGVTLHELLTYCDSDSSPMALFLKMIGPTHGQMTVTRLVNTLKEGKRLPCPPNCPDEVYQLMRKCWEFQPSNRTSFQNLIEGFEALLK
Procedure: In vitro activity of compounds of the present invention for inhibiting JAK1 kinase was determined by the following method.
IC50 values of test compounds was calculated from the data of the test compounds in inhibiting the activity of JAK1 kinase at different concentrations.

JAK3 kinase = JAK3 kinase (Homo sapiens (Human), UniProt P52333); assay: Assay for inhibiting JAK3 kinase (in vitro kinase assay, HRP anti-phosphotyrosine antibody/TMB absorbance); format: biochemical; settings: 50 minutes at room temperature; read-out: IC50 (JAK3/Bio)
JAK3 kinase, sequence (P52333 whole entry): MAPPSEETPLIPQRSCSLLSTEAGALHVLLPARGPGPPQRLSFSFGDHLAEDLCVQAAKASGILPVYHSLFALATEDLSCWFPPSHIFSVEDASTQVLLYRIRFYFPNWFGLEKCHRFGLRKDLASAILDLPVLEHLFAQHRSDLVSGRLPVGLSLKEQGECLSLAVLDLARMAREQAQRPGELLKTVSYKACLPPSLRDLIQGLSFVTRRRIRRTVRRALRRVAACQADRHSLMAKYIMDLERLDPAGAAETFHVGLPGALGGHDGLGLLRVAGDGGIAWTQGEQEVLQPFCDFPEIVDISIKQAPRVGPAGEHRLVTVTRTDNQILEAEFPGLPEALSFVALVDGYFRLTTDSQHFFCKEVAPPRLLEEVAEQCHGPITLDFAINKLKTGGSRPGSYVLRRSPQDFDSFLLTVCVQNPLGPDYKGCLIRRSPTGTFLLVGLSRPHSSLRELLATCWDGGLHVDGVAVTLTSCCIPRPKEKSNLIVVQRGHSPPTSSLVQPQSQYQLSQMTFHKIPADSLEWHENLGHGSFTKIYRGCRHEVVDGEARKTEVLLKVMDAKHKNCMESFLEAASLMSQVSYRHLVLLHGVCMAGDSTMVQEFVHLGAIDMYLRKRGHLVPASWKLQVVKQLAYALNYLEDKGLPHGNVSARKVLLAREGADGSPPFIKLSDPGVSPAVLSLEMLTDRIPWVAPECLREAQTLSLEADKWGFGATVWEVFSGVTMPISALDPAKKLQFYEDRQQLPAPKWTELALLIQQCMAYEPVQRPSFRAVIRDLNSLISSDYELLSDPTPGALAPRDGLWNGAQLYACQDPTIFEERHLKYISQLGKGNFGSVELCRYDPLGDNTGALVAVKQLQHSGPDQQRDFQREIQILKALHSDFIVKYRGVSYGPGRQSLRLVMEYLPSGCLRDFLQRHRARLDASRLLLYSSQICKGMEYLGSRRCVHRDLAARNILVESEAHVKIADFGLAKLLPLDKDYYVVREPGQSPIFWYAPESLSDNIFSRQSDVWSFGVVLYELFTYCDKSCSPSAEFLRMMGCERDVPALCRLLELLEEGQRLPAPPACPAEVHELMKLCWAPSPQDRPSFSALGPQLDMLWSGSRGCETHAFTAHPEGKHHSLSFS
Procedure: In vitro activity of compounds of the present invention for inhibiting JAK3 kinase was determined by the following method.

[1] = Pharmacokinetics assay in rats, intragastric administration, plasma by LC/MS/MS; format: in vivo, Sprague-Dawley (SD) rats; settings: both sexes, Sprague-Dawley, rat, plasma, po, SD rats, 10 mg/kg; for Vd/F: read-out: Apparent Distribution Volume Vz/F; for AUC: read-out: Area Under Curve AUC; for CL/F: read-out: Clearance CL/F; for half-life: read-out: Half-Life t½ (converted); for MRT: read-out: Mean Residence Time MRT; for Cmax: read-out: Plasma Conc. Cmax
Procedure: Rats were used as test animals. […] The pharmacokinetic behavior of the compounds of the present invention was studied and evaluated in rats.
56 Healthy adult Sprague-Dawley (SD) rats, half male and half female, purchased from SINO-BRITSH SIPPR/BK LAB.
The appropriate amount of test compounds were weighed and mixed with 1.0 mL of dimethyl sulfoxide to prepare a 1.0 mg/mL suspension.
After an overnight fast, SD rats were administered intragastrically at a dose of 10.0 mg/kg and an administration volume of 10 mL/kg.
The plasma samples were stored at −20° C. The rats were fed 2 hours after administration.
Content determination of the test compounds in rat plasma after intragastrically administering at different concentrations: 50 μL of rat plasmas taken at various time points after administration were mixed with 50 μL of internal standard solution and 100 μL of methanol and mixed for 3 minutes by a vortexer. The mixture was centrifuged for 10 minutes at 13,500 rpm. 10 μL of the supernatant was taken from the plasma sample and analyzed by LC-MS/MS.
Pharmacokinetic Parameters of the compounds of the present invention were shown as follows: […]

SMILES	IC50 (JAK2 kinase)	IC50 (JAK1 kinase)	IC50 (JAK3 kinase)	Vd/F [1]	AUC [1]	CL/F [1]	half-life [1]	MRT [1]	Cmax [1]
CN(c1ncnc2[nH]ccc12)[C@H]1C[C@@H]2CN(C(=O)CO)C[C@@H]2C1 [Example 6, 2-Hydroxy-1-((3aR,5S,6aS)-5-(methyl(7H-pyrrolo[2,3-d]pyrimidin-4-yl)amino)hexahydrocyclopenta[c]pyrrol-2(1H)-yl)ethanone]	0.045 µM	0.005 µM	0.011 µM	34.5 ± 21 L/kg	2210 ± 1470 ng·h/mL	110 ± 71 mL/min/kg	4.01 ± 1.52 h	2.19 ± 0.6 h	1230 ± 549 ng/mL
CN(c1ncnc2[nH]ccc12)[C@H]1C[C@@H]2CN(C(=O)CCC#N)C[C@@H]2C1 [Example 22, 4-((3aR,5S,6aS)-5-(Methyl(7H-pyrrolo[2,3-d]pyrimidin-4-yl)amino)hexahydrocyclopenta[c]pyrrol-2(1H)-yl)-4-oxobutanenitrile]	0.054 µM	0.016 µM	–	9.39 ± 8.06 L/kg	6990 ± 4560 ng·h/mL	34.6 ± 22.7 mL/min/kg	2.87 ± 0.7 h	2.6 ± 0.1 h	2960 ± 2110 ng/mL
COc1nsc(NC(=O)N2C[C@H]3C[C@H](N(C)c4ncnc5[nH]ccc45)C[C@H]3C2)n1 [Example 34, (3aR,5S,6aS)—N-(3-Methoxy-1,2,4-thiadiazol-5-yl)-5-(methyl(7H-pyrrolo[2,3-d]pyrimidin-4-yl)amino)hexahydrocyclopenta[c]pyrrole-2(1H)-carboxamide]	0.005 µM	0.002 µM	–	2.76 ± 1.53 L/kg	14900 ± 10400 ng·h/mL	18.3 ± 14.2 mL/min/kg	2.1 ± 0.73 h	3.81 ± 0.82 h	2670 ± 1450 ng/mL
CC(=O)N1CC[C@H]2CC(N(C)c3ncnc4[nH]ccc34)C[C@H]2C1 (stereo partly drawn) [Example 35, 1-((4aS,7aR)-6-(Methyl(7H-pyrrolo[2,3-d]pyrimidin-4-yl)amino)hexahydro-1H-cyclopenta[c]pyridin-2(3H,4H,4aH,5H,6H,7H,7aH)-yl)ethanone]	0.016 µM	0.003 µM	–	10.4 ± 2.04 L/kg	3080 ± 1340 ng·h/mL	63.3 ± 28 mL/min/kg	2.11 ± 0.67 h	3.02 ± 1.33 h	1220 ± 244 ng/mL
CCc1nsc(NC(=O)N2C[C@H]3C[C@H](N(C)c4ncnc5[nH]ccc45)C[C@H]3C2)n1 [Example 48, (3aR,5S,6aS)—N-(3-Ethyl-1,2,4-thiadiazol-5-yl)-5-(methyl(7H-pyrrolo[2,3-d]pyrimidin-4-yl)amino)hexahydrocyclopenta[c]pyrrole-2(1H)-carboxamide]	0.031 µM	0.001 µM	–	7.2 ± 8.11 L/kg	9620 ± 7910 ng·h/mL	31.9 ± 26.9 mL/min/kg	2.43 ± 0.75 h	3.4 ± 0.91 h	2070 ± 1470 ng/mL
CN(c1ncnc2[nH]ccc12)[C@H]1C[C@@H]2CN(C(=O)Nc3nc(C4CC4)ns3)C[C@@H]2C1 [Example 49, (3aR,5S,6aS)—N-(3-Cyclopropyl-1,2,4-thiadiazol-5-yl)-5-(methyl(7H-pyrrolo[2,3-d]pyrimidin-4-yl)amino)hexahydrocyclopenta[c]pyrrole-2(1H)-carboxamide]	0.014 µM	0.0002 µM	–	18.1 ± 20.7 L/kg	6000 ± 4740 ng·h/mL	46.1 ± 35.6 mL/min/kg	–	–	1060 ± 677 ng/mL
CN(c1ncnc2[nH]ccc12)[C@H]1C[C@@H]2CN(C(=O)Nc3nc(CO)ns3)C[C@@H]2C1 [Example 50, (3aR,5S,6aS)—N-(3-(Hydroxymethyl)-1,2,4-thiadiazol-5-yl)-5-(methyl(7H-pyrrolo[2,3-d]pyrimidin-4-yl)amino)hexahydrocyclopenta[c]pyrrole-2(1H)-carboxamide]	0.007 µM	0.0005 µM	0.201 µM	–	–	–	–	–	–
CN(c1ncnc2[nH]ccc12)[C@H]1C[C@@H]2CN(CC(F)(F)F)C[C@@H]2C1 [Example 56, N-methyl-N-((3aR,5S,6aS)-2-(2,2,2-trifluoroethyl)octahydrocyclopenta[c]pyrrol-5-yl)-7H-pyrrolo[2,3-d]pyrimidin-4-amine]	0.032 µM	0.011 µM	0.075 µM	–	–	–	–	–	–
CN(c1ncnc2[nH]ccc12)[C@@H]1C[C@@H]2CN(CC#N)C[C@@H]2C1 [Example 69, 2-((3aR,5R,6aS)-5-(methyl(7H-pyrrolo[2,3-d]pyrimidin-4-yl)amino)hexahydrocyclopenta[c]pyrrol-2(1H)-yl)acetonitrile]	0.004 µM	0.005 µM	0.02 µM	–	–	–	–	–	–
CN(c1ncnc2[nH]ccc12)[C@H]1C[C@@H]2CN(C(=O)[C@H](O)CO)C[C@@H]2C1 [Example 92, (R)-2,3-dihydroxy-1-((3aR,5S,6aS)-5-(methyl(7H-pyrrolo[2,3-d]pyrimidin-4-yl)amino)hexahydrocyclopenta[c]pyrrol-2(1H)-yl)propan-1-one]	0.203 µM	0.131 µM	–	–	–	–	–	–	–
CN(c1ncnc2[nH]ccc12)[C@H]1C[C@@H]2CN(C(=O)C(O)C(F)(F)F)C[C@@H]2C1 (stereo partly drawn) [Example 97, 3,3,3-trifluoro-2-hydroxy-1-((3aR,5S,6aS)-5-(methyl(7H-pyrrolo[2,3-d]pyrimidin-4-yl)amino)hexahydrocyclopenta[c]pyrrol-2(1H)-yl)propan-1-one]	–	–	0.11 µM	–	–	–	–	–	–
CN(c1ncnc2[nH]ccc12)[C@H]1C[C@@H]2CN(C(=O)OCC(F)(F)F)C[C@@H]2C1 [Example 111, (3aR,5S,6aS)-2,2,2-trifluoroethyl 5-(methyl(7H-pyrrolo[2,3-d]pyrimidin-4-yl)amino)hexahydrocyclopenta[c]pyrrole-2(1H)-carboxylate]	0.146 µM	0.096 µM	0.101 µM	–	–	–	–	–	–
COc1nsc(NC(=O)N2C[C@H]3C[C@H](N(C)c4ccnc5[nH]ccc45)C[C@H]3C2)n1 [Example 113, (3aR,5S,6aS)-N-(3-methoxy-1,2,4-thiadiazol-5-yl)-5-(methyl(1H-pyrrolo[2,3-b]pyridin-4-yl)amino)hexahydrocyclopenta[c]pyrrole-2(1H)-carboxamide]	0.178 µM	0.023 µM	–	–	–	–	–	–	–
CN(c1ncnc2[nH]cc(F)c12)[C@H]1C[C@@H]2CN(C(=O)CO)C[C@@H]2C1 [Example 128, 1-((3aR,5S,6aS)-5-((5-fluoro-7H-pyrrolo[2,3-d]pyrimidin-4-yl)(methyl)amino)hexahydrocyclopenta[c]pyrrol-2(1H)-yl)-2-hydroxyethanone]	–	0.013 µM	0.004 µM	11.4 ± 4.15 L/kg	2320 ± 1030 ng·h/mL	84.3 ± 37.8 mL/min/kg	1.62 ± 0.28 h	–	1420 ± 150 ng/mL
CN(c1ncnc2[nH]c(F)cc12)[C@H]1C[C@@H]2CN(C(=O)CO)C[C@@H]2C1 [Example 129, 1-((3aR,5S,6aS)-5-((6-fluoro-7H-pyrrolo[2,3-d]pyrimidin-4-yl)(methyl)amino)hexahydrocyclopenta[c]pyrrol-2(1H)-yl)-2-hydroxyethanone]	–	0.036 µM	0.017 µM	–	–	–	–	–	–
CN(C[C@H]1[C@@H]2CN(C(=O)OC(C)(C)C)C[C@@H]21)c1ncnc2[nH]ccc12 [Example 133, (1R,5S,6S)-tert-butyl 6-((methyl(7H-pyrrolo[2,3-d]pyrimidin-4-yl)amino)methyl)-3-azabicyclo[3.1.0]hexane-3-carboxylate]	–	–	0.09 µM	–	–	–	–	–	–
CC(C)C(=O)N1CC[C@H]2C[C@@H](N(C)c3ncnc4[nH]ccc34)C[C@H]2C1 [Example 151, 2-methyl-1-((4aS,6R,7aR)-6-(methyl(7H-pyrrolo[2,3-d]pyrimidin-4-yl)amino)hexahydro-1H-cyclopenta[c]pyridin-2(3H)-yl)propan-1-one]	0.127 µM	0.106 µM	0.203 µM	–	–	–	–	–	–
COc1nnc(NC(=O)N2C[C@H]3C[C@H](N(C)c4ncnc5[nH]ccc45)C[C@H]3C2)s1 [Example 155, (3aR,5S,6aS)-N-(5-methoxy-1,3,4-thiadiazol-2-yl)-5-(methyl(7H-pyrrolo[2,3-d]pyrimidin-4-yl)amino)hexahydrocyclopenta[c]pyrrole-2(1H)-carboxamide]	0.041 µM	0.004 µM	–	–	–	–	–	–	–
